{
  "source": "patent EP3821889A1",
  "about": "“METHODS FOR USING LOW-DOSE […] MYOCARIAL INFARCTION” (Institut de Cardiologie de Montréal, priority 2019, dated 2021)",
  "key": {"[1]": {"test_system": "High-sensitivity C-reactive protein", "details": "in vivo"}, "[2]": {"test_system": "white-cell count", "details": "in vivo"}, "[3]": {"test_system": "patients recruited within 30 days after a myocardial infarction", "details": "in vivo"}, "[4]": {"test_system": "patients with stable coronary disease", "details": "in vivo; cited from earlier work"}, "[5]": {"test_system": "patients recruited within 30 days after a myocardial infarction", "details": "human, in vivo"}, "[6]": {"details": "CIRT; cited from earlier work"}},
  "note": "Where “and” joins values, the source holds several entries; their conditions need not be identical. Equal values may be shown once. Entries after “also recorded” stand apart in the source; their conditions may differ.",
  "data": [
    {"smiles": "COc1cc2c(c(OC)c1OC)-c1ccc(OC)c(=O)cc1[C@@H](NC(C)=O)CC2", "note": "[Colchicine]", "values": [
      {"measurement": "Hs-C reactive protein, 6 months, geometric mean (IQR)", "setting": "[1]", "result": "1.37 (0.75, 2.13) mg/L"},
      {"measurement": "Hs-C reactive protein, Adjusted GM percent change (95% CI)", "setting": "[1]", "result": "-70.0% and -70.0 (-74.6, -64.5) %"},
      {"measurement": "Hs-C reactive protein, Placebo-adjusted GM percent change (95% CI)", "setting": "[1]", "result": "-10.1% and -10.1 (-28.6, 13.4) %"},
      {"measurement": "Hs-C reactive protein, Randomization, geometric mean (IQR)", "setting": "[1]", "result": "4.27 (2.12, 7.22) mg/L"},
      {"measurement": "reduction in the C-reactive protein level", "setting": "[1]", "result": "> 65", "unit": "%"},
      {"measurement": "Circulating lymphocytes, 12 months, geometric mean (IQR)", "setting": "[2]", "result": "1.83 (1.50, 2.44) 10^3/µL"},
      {"measurement": "Circulating lymphocytes, Adjusted GM percent change (95% CI)", "setting": "[2]", "result": "1.80 (-0.46, 4.11) %"},
      {"measurement": "Circulating lymphocytes, Placebo-adjusted GM percent change (95% CI)", "setting": "[2]", "result": "1.10 (-2.06, 4.36) %"},
      {"measurement": "Circulating lymphocytes, Randomization, geometric mean (IQR)", "setting": "[2]", "result": "1.79 (1.40, 2.40) 10^3/µL"},
      {"measurement": "Circulating neutrophils, 12 months, geometric mean (IQR)", "setting": "[2]", "result": "3.95 (3.27, 5.08) 10^3/µL"},
      {"measurement": "Circulating neutrophils, Adjusted GM percent change (95% CI)", "setting": "[2]", "result": "-27.63 (-29.48, -25.73) %"},
      {"measurement": "Circulating neutrophils, Placebo-adjusted GM percent change (95% CI)", "setting": "[2]", "result": "0.45 (-3.28, 4.32) %"},
      {"measurement": "Circulating neutrophils, Randomization, geometric mean (IQR)", "setting": "[2]", "result": "5.45 (4.36, 7.15) 10^3/µL"},
      {"measurement": "Total white blood cell count, 12 months, geometric mean (IQR)", "setting": "[2]", "result": "6.95 (5.99, 8.30) 10^3/µL"},
      {"measurement": "Total white blood cell count, Adjusted GM percent change (95% CI)", "setting": "[2]", "result": "-18.8% and -18.81 (-20.12, -17.47) %"},
      {"measurement": "Total white blood cell count, Placebo-adjusted GM percent change (95% CI)", "setting": "[2]", "result": "0.3% and 0.26 (-2.15, 2.72) %"},
      {"measurement": "Total white blood cell count, Randomization, geometric mean (IQR)", "setting": "[2]", "result": "8.54 (7.10, 10.40) 10^3/µL"},
      {"measurement": "Anemia", "setting": "[3]", "result": "14 (0.6) number of patients (percent)"},
      {"measurement": "Any serious adverse event", "setting": "[3]", "result": "383 (16.4) number of patients (percent)"},
      {"measurement": "At least one gastrointestinal adverse event", "setting": "[3]", "result": 17.5, "unit": "%"},
      {"measurement": "Diarrhea reported, % of the patients", "setting": "[3]", "result": 9.7, "unit": "%"},
      {"measurement": "Gastrointestinal hemorrhage", "setting": "[3]", "result": "7 (0.3) number of patients (percent)"},
      {"measurement": "Gastrointestinal serious adverse event", "setting": "[3]", "result": "46 (2.0) number of patients (percent)"},
      {"measurement": "Hospitalization for heart failure", "setting": "[3]", "result": "25 (1.1) number of patients (percent)"},
      {"measurement": "Infection as a serious adverse event, % of the patients", "setting": "[3]", "result": 2.2, "unit": "%"},
      {"measurement": "Infection serious adverse event", "setting": "[3]", "result": "51 (2.2) number of patients (percent)"},
      {"measurement": "Leukopenia", "setting": "[3]", "result": "2 (0.1) number of patients (percent)"},
      {"measurement": "Nausea adverse event", "setting": "[3]", "result": "43 (1.8) number of patients (percent)"},
      {"measurement": "Pneumonia reported as a serious adverse event, % of the patients", "setting": "[3]", "result": 0.9, "unit": "%"},
      {"measurement": "Pneumonia serious adverse event", "setting": "[3]", "result": "21 (0.9) number of patients (percent)"},
      {"measurement": "Septic shock serious adverse event", "setting": "[3]", "result": "2 (0.1) number of patients (percent)"},
      {"measurement": "Thrombocytopenia", "setting": "[3]", "result": "3 (0.1) number of patients (percent)"},
      {"measurement": "incidence of adverse events considered to be related to trial drug", "setting": "[3]", "result": 16.0, "unit": "%"},
      {"measurement": "incidence of septic shock (in words)", "setting": "[3]", "result": "did not increase the incidence of septic shock"},
      {"measurement": "nausea, % of the patients", "setting": "[3]", "result": 1.8, "unit": "%"},
      {"measurement": "overall incidence of serious adverse events", "setting": "[3]", "result": 16.4, "unit": "%"},
      {"measurement": "serious adverse event of myopathy (in words)", "setting": "[3]", "result": "no serious adverse event of myopathy linked to colchicine"},
      {"measurement": "trial regimen discontinued, % of the patients", "setting": "[3]", "result": 18.4, "unit": "%"},
      {"measurement": "cardiovascular events (in words)", "setting": "[4]", "result": "fewer cardiovascular events"},
      {"measurement": "Adjusted Hazard Ratio (95% CI), time to first primary endpoint", "setting": "[5]", "result": "0.78 (0.62-0.98)"},
      {"measurement": "Death", "setting": "[5]", "result": "43 (1.8) number (percent)"},
      {"measurement": "Death from cardiovascular causes", "setting": "[5]", "result": "20 (0.8) number (percent)"},
      {"measurement": "Deep venous thrombosis or pulmonary embolus", "setting": "[5]", "result": "10 (0.4) number (percent)"},
      {"measurement": "Hazard Ratio (95% CI), CV death", "setting": "[5]", "result": "0.83 (0.45-1.53)"},
      {"measurement": "Hazard Ratio (95% CI), Death", "setting": "[5]", "result": "0.98 (0.64–1.49)"},
      {"measurement": "Hazard Ratio (95% CI), Deep venous thrombosis or pulmonary embolus", "setting": "[5]", "result": "1.43 (0.54–3.75)"},
      {"measurement": "Hazard Ratio (95% CI), MI", "setting": "[5]", "result": "0.84 (0.62-1.14)"},
      {"measurement": "Hazard Ratio (95% CI), Resuscitated cardiac arrest", "setting": "[5]", "result": "1.00 (0.29-3.46)"},
      {"measurement": "Hazard Ratio (95% CI), Stroke", "setting": "[5]", "result": "0.26 (0.10-0.71)"},
      {"measurement": "Hazard Ratio (95% CI), Urgent hospitalization for angina requiring revascularization", "setting": "[5]", "result": "0.47 (0.28-0.78)"},
      {"measurement": "Hazard Ratio (95% CI), WLW model, 1st Event", "setting": "[5]", "result": "0.77 (0.61; 0.96)"},
      {"measurement": "Hazard Ratio (95% CI), WLW model, 2nd Event", "setting": "[5]", "result": "0.73 (0.48; 1.11)"},
      {"measurement": "Hazard Ratio (95% CI), WLW model, 3rd Event", "setting": "[5]", "result": "0.64 (0.37; 1.10)"},
      {"measurement": "Hazard Ratio (95% CI), WLW model, Average", "setting": "[5]", "result": "0.77 (0.61; 0.96)"},
      {"measurement": "Hazard Ratio (95% CI), total primary endpoint events, Andersen-Gill model", "setting": "[5]", "result": "0.69 (0.54; 0.88)"},
      {"measurement": "MI", "setting": "[5]", "result": "77 (3.4%) no. (%)"},
      {"measurement": "Myocardial infarction", "setting": "[5]", "result": "89 (3.8) number (percent)"},
      {"measurement": "Number of primary endpoint events per patient: 0 (number of patients)", "setting": "[5]", "result": 2235},
      {"measurement": "Number of primary endpoint events per patient: 1 (number of patients)", "setting": "[5]", "result": 111},
      {"measurement": "Number of primary endpoint events per patient: 2 (number of patients)", "setting": "[5]", "result": 18},
      {"measurement": "Number of primary endpoint events per patient: 3 (number of patients)", "setting": "[5]", "result": 1},
      {"measurement": "Number of primary endpoint events per patient: 4 (number of patients)", "setting": "[5]", "result": 1},
      {"measurement": "Primary endpoint", "setting": "[5]", "result": "115(5.1%) no. (%)"},
      {"measurement": "Rate of primary endpoint events per 100 patient-months", "setting": "[5]", "result": 0.29, "unit": "per 100 patient-months"},
      {"measurement": "Secondary composite end point", "setting": "[5]", "result": "111 (4.7) number (percent)"},
      {"measurement": "Total number of primary endpoint events", "setting": "[5]", "result": 154},
      {"measurement": "Urgent hospitalization for angina leading to revascularization", "setting": "[5]", "result": "25 (1.1) number (percent)"},
      {"measurement": "Urgent hospitalization for angina requiring revascularization", "setting": "[5]", "result": "22 (1.0%) no. (%)"},
      {"measurement": "ischemic cardiovascular events / primary composite efficacy end point compared with placebo (in words)", "setting": "[5]", "result": "significantly lower percentage of patients with ischemic cardiovascular events than placebo; also recorded: statistically significant lower risk of ischemic cardiovascular events than placebo"},
      {"measurement": "primary end point occurred in % of the patients", "setting": "[5]", "result": "5.5% and 5.1%"},
      {"measurement": "secondary efficacy end point occurred in % of the patients", "setting": "[5]", "result": 4.7, "unit": "%"}
    ]},
    {"smiles": "CN(Cc1cnc2nc(N)nc(N)c2n1)c1ccc(C(=O)N[C@@H](CCC(=O)O)C(=O)O)cc1", "note": "[methotrexate]", "values": [
      {"measurement": "cardiovascular outcomes and plasma markers of inflammation (in words)", "setting": "[6]", "result": "did not affect cardiovascular outcomes or plasma markers of inflammation"}
    ]}
  ]
}
